For seven compounds, EC50 results are on record in patent US20210363213A1, “GLUCAGON-GLP-1-GIP TRIPLE AGONIST COMPOUNDS” (priority 2013, published 2021).

Peptide text beside a SMILES is read from it.

The target of one assay is T1, human GIP R (Homo sapiens, UniProt P48546).
T1 construct: expressed in transfected cells
T1 sequence (P48546 22-466): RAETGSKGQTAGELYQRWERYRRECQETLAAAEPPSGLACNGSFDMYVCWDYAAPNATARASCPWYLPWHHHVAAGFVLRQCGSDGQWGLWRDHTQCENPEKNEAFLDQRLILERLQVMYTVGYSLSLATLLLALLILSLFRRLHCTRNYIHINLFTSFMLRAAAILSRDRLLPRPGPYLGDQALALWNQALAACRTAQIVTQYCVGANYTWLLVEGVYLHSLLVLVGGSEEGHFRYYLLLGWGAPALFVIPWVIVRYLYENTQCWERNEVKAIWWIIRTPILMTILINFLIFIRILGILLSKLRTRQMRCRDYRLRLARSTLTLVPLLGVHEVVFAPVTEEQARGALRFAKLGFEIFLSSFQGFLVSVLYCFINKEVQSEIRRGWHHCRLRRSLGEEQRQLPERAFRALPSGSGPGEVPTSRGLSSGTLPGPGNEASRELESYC
Nature of the assay: Human GIP receptor (GIP-R) activity assay, cAMP induction (AlphaScreen) in HEK293 cells. Format: cell-based.
Details: not given
For orientation: In Alpha technology, singlet oxygen from a donor bead excites a nearby acceptor bead.
The EC50 is the midpoint of the concentration-response curve. The compound `CC[C@H](C)[C@H](NC(=O)[C@H](CO)NC(=O)[C@H](Cc1ccc(O)cc1)NC(=O)[C@H](CC(=O)O)NC(=O)[C@H](CO)NC(=O)[C@@H](NC(=O)[C@H](Cc1ccccc1)NC(=O)[C@@H](NC(=O)CNC(=O)[C@H](CCC(N)=O)NC(=O)C(C)(C)NC(=O)[C@@H](N)Cc1ccc(O)cc1)[C@@H](C)O)[C@@H](C)O)C(=O)N[C@@H](Cc1ccc(O)cc1)C(=O)N[C@@H](CC(C)C)C(=O)N[C@@H](CC(=O)O)C(=O)N[C@@H](CO)C(=O)N[C@@H](CCCCN)C(=O)N[C@@H](C)C(=O)N[C@@H](C)C(=O)N[C@@H](Cc1c[nH]cn1)C(=O)N[C@@H](CC(=O)O)C(=O)N[C@@H](Cc1ccccc1)C(=O)N[C@H](C(=O)N[C@@H](CC(N)=O)C(=O)N[C@@H](Cc1c[nH]c2ccccc12)C(=O)N[C@@H](CC(C)C)C(=O)N[C@@H](CC(C)C)C(=O)N[C@@H](CO)C(=O)N[C@@H](C)C(N)=O)C(C)C` [Compound 11] (HELM PEPTIDE1{Y.[Aib].Q.G.T.F.T.S.D.Y.S.I.Y.L.D.S.K.A.A.H.D.F.V.N.W.L.L.S.A.[am]}$$$$V2.0) came in with an EC50 of 0.25 nM.
As for `CC(C)C[C@H](NC(=O)[C@H](C)NC(=O)[C@H](CCCCN)NC(=O)[C@H](CO)NC(=O)[C@H](Cc1ccc(O)cc1)NC(=O)[C@H](CC(=O)O)NC(=O)[C@H](CO)NC(=O)[C@@H](NC(=O)[C@H](Cc1ccccc1)NC(=O)[C@@H](NC(=O)CNC(=O)[C@H](CCC(N)=O)NC(=O)C(C)(C)NC(=O)[C@@H](N)Cc1ccc(O)cc1)[C@@H](C)O)[C@@H](C)O)C(=O)N[C@@H](CC(=O)O)C(=O)N[C@@H](CO)C(=O)N[C@@H](CCCCN)C(=O)N[C@@H](C)C(=O)N[C@@H](C)C(=O)N[C@@H](Cc1c[nH]cn1)C(=O)N[C@@H](CC(=O)O)C(=O)N[C@@H](Cc1ccccc1)C(=O)N[C@H](C(=O)N[C@@H](CCC(=O)O)C(=O)N[C@@H](Cc1c[nH]c2ccccc12)C(=O)N[C@@H](CC(C)C)C(=O)N[C@@H](CC(C)C)C(=O)N[C@@H](CO)C(=O)N[C@@H](C)C(N)=O)C(C)C` [Compound 7] (HELM PEPTIDE1{Y.[Aib].Q.G.T.F.T.S.D.Y.S.K.A.L.D.S.K.A.A.H.D.F.V.E.W.L.L.S.A.[am]}$$$$V2.0), the EC50 turned out to be 0.5 nM.
Compound `CC(C)C[C@H](NC(=O)[C@H](CC(C)C)NC(=O)[C@H](Cc1c[nH]c2ccccc12)NC(=O)[C@H](CCC(=O)O)NC(=O)[C@@H](NC(=O)[C@H](Cc1ccccc1)NC(=O)[C@H](CC(=O)O)NC(=O)[C@H](CCCNC(=N)N)NC(=O)[C@H](C)NC(=O)[C@H](C)NC(=O)[C@H](CCCCN)NC(=O)[C@H](CO)NC(=O)[C@H](CC(=O)O)NC(=O)[C@H](CC(C)C)NC(=O)[C@H](Cc1ccc(O)cc1)NC(=O)[C@H](CCCCN)NC(=O)[C@H](CO)NC(=O)[C@H](Cc1ccc(O)cc1)NC(=O)[C@H](CC(=O)O)NC(=O)[C@H](CO)NC(=O)[C@@H](NC(=O)[C@H](Cc1ccccc1)NC(=O)[C@@H](NC(=O)CNC(=O)[C@H](CCC(N)=O)NC(=O)C(C)(C)NC(=O)[C@@H](N)Cc1ccc(O)cc1)[C@@H](C)O)[C@@H](C)O)C(C)C)C(=O)N[C@@H](CO)C(=O)N[C@@H](C)C(N)=O` [Compound 6] (HELM PEPTIDE1{Y.[Aib].Q.G.T.F.T.S.D.Y.S.K.Y.L.D.S.K.A.A.R.D.F.V.E.W.L.L.S.A.[am]}$$$$V2.0) displayed an EC50 of 0.32 nM.

Staying with this assay, now noted: Table 2b (most comprehensive data); average EC50; cAMP in HEK293 cells expressing human GIP R; read-out: GIP R (EC50 in nM).
On to `CCCCCCCCCCCCCCCC(=O)N[C@@H](CCC(=O)NCCCC[C@H](NC(=O)[C@H](CCCCN)NC(=O)[C@H](CCC(=O)O)NC(=O)[C@H](CC(C)C)NC(=O)[C@H](Cc1ccc(O)cc1)NC(=O)[C@@H](NC(=O)[C@H](CO)NC(=O)[C@H](Cc1ccc(O)cc1)NC(=O)[C@H](CC(=O)O)NC(=O)[C@H](CO)NC(=O)[C@@H](NC(=O)[C@H](Cc1ccccc1)NC(=O)[C@@H](NC(=O)CNC(=O)[C@H](CCC(N)=O)NC(=O)C(C)(C)NC(=O)[C@@H](N)Cc1ccc(O)cc1)[C@@H](C)O)[C@@H](C)O)[C@@H](C)CC)C(=O)N[C@@H](C)C(=O)N[C@@H](C)C(=O)N[C@@H](CCCCN)C(=O)N[C@@H](CCC(=O)O)C(=O)N[C@@H](Cc1ccccc1)C(=O)N[C@H](C(=O)N[C@@H](CCC(=O)O)C(=O)N[C@@H](Cc1c[nH]c2ccccc12)C(=O)N[C@@H](CC(C)C)C(=O)N[C@@H](CC(C)C)C(=O)N[C@@H](CO)C(=O)N[C@@H](C)C(=O)NCC(=O)N1CCC[C@H]1C(=O)N[C@@H](CO)C(=O)N[C@@H](CO)C(=O)NCC(=O)N[C@@H](C)C(=O)N1CCC[C@H]1C(=O)N1CCC[C@H]1C(=O)N1CCC[C@H]1C(=O)N[C@@H](CO)C(N)=O)C(C)C)C(=O)O` [Compound 32] (HELM PEPTIDE1{Y.[Aib].Q.G.T.F.T.S.D.Y.S.I.Y.L.E.K.K.A.A.K.E.F.V.E.W.L.L.S.A.G.P.S.S.G.A.P.P.P.S.[am]}|PEPTIDE2{[CCCCCCCCCCCCCCCC(=O)[*:2]].[gGlu]}$PEPTIDE1,PEPTIDE2,17:R3-2:R2$$$V2.0), for which the EC50 is 0.04 nM.
In the case of `CCCCCCCCCCCCCCCC(=O)N[C@@H](CCC(=O)NCCCC[C@H](NC(=O)[C@H](CO)NC(=O)[C@H](Cc1ccc(O)cc1)NC(=O)[C@H](CC(=O)O)NC(=O)[C@H](CO)NC(=O)[C@@H](NC(=O)[C@H](Cc1ccccc1)NC(=O)[C@@H](NC(=O)CNC(=O)[C@H](CCC(N)=O)NC(=O)C(C)(C)NC(=O)[C@@H](N)Cc1ccc(O)cc1)[C@@H](C)O)[C@@H](C)O)C(=O)N[C@@H](Cc1ccc(O)cc1)C(=O)N[C@@H](CC(C)C)C(=O)N[C@@H](CCC(=O)O)C(=O)N[C@@H](CCCCN)C(=O)N[C@@H](CCCCN)C(=O)N[C@@H](C)C(=O)N[C@@H](C)C(=O)N[C@@H](CCCCN)C(=O)N[C@@H](CCC(=O)O)C(=O)N[C@@H](Cc1ccccc1)C(=O)N[C@H](C(=O)N[C@@H](CCC(=O)O)C(=O)N[C@@H](Cc1c[nH]c2ccccc12)C(=O)N[C@@H](CC(C)C)C(=O)N[C@@H](CC(C)C)C(=O)N[C@@H](CO)C(=O)N[C@@H](C)C(N)=O)C(C)C)C(=O)O` [Compound 25] (HELM PEPTIDE1{Y.[Aib].Q.G.T.F.T.S.D.Y.S.K.Y.L.E.K.K.A.A.K.E.F.V.E.W.L.L.S.A.[am]}|PEPTIDE2{[CCCCCCCCCCCCCCCC(=O)[*:2]].[gGlu]}$PEPTIDE1,PEPTIDE2,12:R3-2:R2$$$V2.0), the EC50 came out at 0.19 nM.
Still for that read-out and setting: the figure for `CCCCCCCCCCCCCCCC(=O)N[C@@H](CCC(=O)NCCCC[C@H](NC(=O)[C@H](CO)NC(=O)[C@H](CC(=O)O)NC(=O)[C@H](CC(C)C)NC(=O)[C@H](Cc1ccc(O)cc1)NC(=O)[C@@H](NC(=O)[C@H](CO)NC(=O)[C@H](Cc1ccc(O)cc1)NC(=O)[C@H](CC(=O)O)NC(=O)[C@H](CO)NC(=O)[C@@H](NC(=O)[C@H](Cc1ccccc1)NC(=O)[C@@H](NC(=O)CNC(=O)[C@H](CCC(N)=O)NC(=O)C(C)(C)NC(=O)[C@@H](N)Cc1ccc(O)cc1)[C@@H](C)O)[C@@H](C)O)[C@@H](C)CC)C(=O)N[C@@H](C)C(=O)N[C@@H](C)C(=O)N[C@@H](Cc1c[nH]cn1)C(=O)N[C@@H](CC(=O)O)C(=O)N[C@@H](Cc1ccccc1)C(=O)N[C@H](C(=O)N[C@@H](CCC(=O)O)C(=O)N[C@@H](Cc1c[nH]c2ccccc12)C(=O)N[C@@H](CC(C)C)C(=O)N[C@@H](CC(C)C)C(=O)N[C@@H](CO)C(=O)N[C@@H](C)C(=O)NCC(=O)N1CCC[C@H]1C(=O)N[C@@H](CO)C(=O)N[C@@H](CO)C(=O)NCC(=O)N[C@@H](C)C(=O)N1CCC[C@H]1C(=O)N1CCC[C@H]1C(=O)N1CCC[C@H]1C(=O)N[C@@H](CO)C(N)=O)C(C)C)C(=O)O` [Compound 29] (HELM PEPTIDE1{Y.[Aib].Q.G.T.F.T.S.D.Y.S.I.Y.L.D.S.K.A.A.H.D.F.V.E.W.L.L.S.A.G.P.S.S.G.A.P.P.P.S.[am]}|PEPTIDE2{[CCCCCCCCCCCCCCCC(=O)[*:2]].[gGlu]}$PEPTIDE1,PEPTIDE2,17:R3-2:R2$$$V2.0) is 0.064 nM; for `CCCCCCCCCCCCCCCC(=O)N[C@@H](CCC(=O)NCCCC[C@H](NC(=O)[C@H](CO)NC(=O)[C@H](CC(=O)O)NC(=O)[C@H](CC(C)C)NC(=O)[C@H](Cc1ccc(O)cc1)NC(=O)[C@@H](NC(=O)[C@H](CO)NC(=O)[C@H](Cc1ccc(O)cc1)NC(=O)[C@H](CC(=O)O)NC(=O)[C@H](CO)NC(=O)[C@@H](NC(=O)[C@H](Cc1ccccc1)NC(=O)[C@@H](NC(=O)CNC(=O)[C@H](CCC(N)=O)NC(=O)C(C)(C)NC(=O)[C@@H](N)Cc1ccc(O)cc1)[C@@H](C)O)[C@@H](C)O)[C@@H](C)CC)C(=O)N[C@@H](C)C(=O)N[C@@H](C)C(=O)N[C@@H](Cc1c[nH]cn1)C(=O)N[C@@H](CC(=O)O)C(=O)N[C@@H](Cc1ccccc1)C(=O)N[C@H](C(=O)N[C@@H](CCC(=O)O)C(=O)N[C@@H](Cc1c[nH]c2ccccc12)C(=O)N[C@@H](CC(C)C)C(=O)N[C@@H](CC(C)C)C(=O)N[C@@H](CCCNC(=N)N)C(=O)N[C@@H](C)C(N)=O)C(C)C)C(=O)O` [Compound 27] (HELM PEPTIDE1{Y.[Aib].Q.G.T.F.T.S.D.Y.S.I.Y.L.D.S.K.A.A.H.D.F.V.E.W.L.L.R.A.[am]}|PEPTIDE2{[CCCCCCCCCCCCCCCC(=O)[*:2]].[gGlu]}$PEPTIDE1,PEPTIDE2,17:R3-2:R2$$$V2.0) it is 0.099 nM.
